Data on four compounds can be found in ChEMBL document CHEMBL1145763, “Design, synthesis and photochemical properties of caged bile acids” (Bioorg Med Chem Lett, 2003).

Converted amounts (≈) assume the structure as drawn.

A short description of the data set: Solubility in 100 mM Tris pH(8.5)/ 30% PEG 6000/200 mM NaOAc. Type of data set: physicochemical.
On to `COc1cc(CO[C@@H]2CC[C@@]3(C)C(C2)C[C@@H](O)[C@H]2[C@@H]4CC[C@H]([C@H](C)CCC(=O)O)[C@@]4(C)[C@@H](O)C[C@@H]23)c([N+](=O)[O-])cc1OC` (some centres undefined), for which the solubility (in general, the dissolved amount per volume that the medium holds) worked out at 1000 µM (≈ 604 µg/mL). In the case of `C[C@H](CCC(=O)NCC(=O)O)[C@H]1CC[C@H]2[C@@H]3[C@H](O)CC4C[C@H](OCc5ccccc5[N+](=O)[O-])CC[C@]4(C)[C@H]3CC[C@]12C` (some centres undefined) it was 4000 µM (≈ 2340 µg/mL); in that of `C[C@H](CCC(=O)O)[C@H]1CC[C@H]2[C@@H]3[C@H](O)CC4C[C@H](OCc5ccccc5[N+](=O)[O-])CC[C@]4(C)[C@H]3CC[C@]12C` (some centres undefined), 5000 µM (≈ 2640 µg/mL); in that of `C[C@H](CCC(=O)O)[C@H]1CC[C@H]2[C@@H]3[C@H](O)CC4C[C@H](OCc5ccccc5[N+](=O)[O-])CC[C@]4(C)[C@H]3C[C@H](O)[C@]12C` (some centres undefined), 2000 µM (≈ 1090 µg/mL).
